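Dose response: 5 concentrations. Exposure: 48 h. Format: 96-well plates. Endpoint: linear interpolation; highest concentration if not reached. At the TGI there is no net growth.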
Assays:
Assay in all cases: NCI-60 cell line screen, 48 h
NCI-H460 lung = system: NCI-H460 lung
SK-OV-3 ovarian = system: SK-OV-3 ovarian
SW-620 colon = system: SW-620 colon
KM20L2 colon = system: KM20L2 colon
K-562 leukemia = system: K-562 leukemia
OVCAR-8 ovarian = system: OVCAR-8 ovarian
SK-MEL-5 melanoma = system: SK-MEL-5 melanoma
HCT-15 colon = system: HCT-15 colon
M19-MEL melanoma = system: M19-MEL melanoma
CCRF-CEM leukemia = system: CCRF-CEM leukemia
MOLT-4 leukemia = system: MOLT-4 leukemia
CAKI-1 renal = system: CAKI-1 renal
SF-268 CNS = system: SF-268 CNS
EKVX NSCLC = system: EKVX NSCLC
SF-539 CNS = system: SF-539 CNS
MALME-3M melanoma = system: MALME-3M melanoma
HOP-62 NSCLC = system: HOP-62 NSCLC
DMS 273 small cell lung = system: DMS 273 small cell lung
HCC-2998 colon = system: HCC-2998 colon
SK-MEL-28 melanoma = system: SK-MEL-28 melanoma
DLD-1 colon = system: DLD-1 colon
SK-MEL-2 melanoma = system: SK-MEL-2 melanoma
IGROV1 ovarian = system: IGROV1 ovarian
U251 CNS = system: U251 CNS
TK-10 renal = system: TK-10 renal
UO-31 renal = system: UO-31 renal
UACC-257 melanoma = system: UACC-257 melanoma
A498 renal = system: A498 renal
786-0 renal = system: 786-0 renal
UACC-62 melanoma = system: UACC-62 melanoma
SNB-75 CNS = system: SNB-75 CNS
NCI-H226 lung = system: NCI-H226 lung
SNB-19 CNS = system: SNB-19 CNS
NCI-H23 lung = system: NCI-H23 lung
LXFL 529 NSCLC = system: LXFL 529 NSCLC
HT29 colon = system: HT29 colon
COLO 205 colon = system: COLO 205 colon
OVCAR-3 ovarian = system: OVCAR-3 ovarian
DMS 114 small cell lung = system: DMS 114 small cell lung
HCT-116 colon = system: HCT-116 colon
SN12C renal = system: SN12C renal
A549 NSCLC = system: A549 NSCLC
HOP-92 NSCLC = system: HOP-92 NSCLC
OVCAR-4 ovarian = system: OVCAR-4 ovarian
NCI-H522 lung = system: NCI-H522 lung
SF-295 CNS = system: SF-295 CNS
ACHN renal = system: ACHN renal
M14 melanoma = system: M14 melanoma
HL-60(TB) leukemia = system: HL-60(TB) leukemia
HOP-18 NSCLC = system: HOP-18 NSCLC
KM12 colon = system: KM12 colon
SNB-78 CNS = system: SNB-78 CNS
RPMI-8226 leukemia = system: RPMI-8226 leukemia
XF 498 CNS = system: XF 498 CNS
OVCAR-5 ovarian = system: OVCAR-5 ovarian
SR leukemia = system: SR leukemia
RXF 393 renal = system: RXF 393 renal
RXF-631 renal = system: RXF-631 renal
LOX IMVI melanoma = system: LOX IMVI melanoma

Measured: TGI

CC1C=C(OC(=O)c2ccccc2)C(=O)C(n2cc(F)c(=O)[nH]c2=O)O1 (centres undefined)
not listed: SR leukemia | RXF 393 renal | RXF-631 renal | LOX IMVI melanoma
> 100 µM: all other assays above

CCCNC1=C(C(=O)OCC)C(=O)CO1
not listed: SK-OV-3 ovarian | HOP-62 NSCLC | COLO 205 colon | NCI-H522 lung | HOP-18 NSCLC | KM12 colon
> 100 µM: all other assays above

CC1=Nc2ccccc2S/C1=C(/C)NNC(=O)C(N)=O
not listed: NCI-H226 lung | SR leukemia | RXF-631 renal
> 100 µM: all other assays above
